The subject of experiment [1] is NF-κB signaling pathway in stable HEK293/NF-κB cells. Description: NF-κB signaling pathway inhibitory activity assay (luciferase reporter, TNF-α stimulation). The experiment is classed as cell-based. To be noted: Homo sapiens, luciferase read after 6 h. The procedure: NF-κB signaling pathway inhibitory activity was evaluated according to the previously reported protocol. Stable HEK293/NF-κB cells were plated into 384-well plates at a concentration of approximate 2500 cells per well. After culturing overnight, compounds were added to the medium at a final concentration of 0.1 μg/mL. HEK293/NF-κB cells were seeded into 96-well cell culture plates (Corning, NY, USA) and allowed to grow for 24 h. The cells were then treated with compounds, followed by stimulation with TNF-α. 6 h later, the luciferase substrate was added to each well, and the released luciferin signal was detected using an EnVision microplate reader. The IC50 was calculated with Prism 4 software (Graphpad, San Diego, CA) from the nonlinear curve fitting of the percentage of inhibition (% inhibition) versus the inhibitor concentration [I] by using the following equation: % inhibition = 100/(1 + [IC50/[I]]^k), where k is the Hill coefficient.
In general terms: In a reporter assay the amount or activity of a reporter protein is the signal.

For experiment [2], the target named is T1, recombinant PTP1B catalytic domain (Homo sapiens, UniProt P18031).
T1 construct: The recombinant PTP1B catalytic domain was expressed and purified according to a previous report; made in house
T1 sequence (P18031 3-277 limits assumed): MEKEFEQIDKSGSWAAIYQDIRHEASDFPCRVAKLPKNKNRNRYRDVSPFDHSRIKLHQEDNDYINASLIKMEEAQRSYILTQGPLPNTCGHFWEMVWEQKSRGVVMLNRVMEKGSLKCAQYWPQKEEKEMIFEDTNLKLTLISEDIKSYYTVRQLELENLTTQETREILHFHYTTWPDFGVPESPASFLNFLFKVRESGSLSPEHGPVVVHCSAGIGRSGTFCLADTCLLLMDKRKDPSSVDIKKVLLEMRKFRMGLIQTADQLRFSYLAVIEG
In words: PTP1B inhibitory activity assay (pNPP hydrolysis). To be noted: pNPP substrate, 30 °C, pH 6.5; IC50 ≥ 50 μM was considered inactive. It counts as biochemical. The procedure: The recombinant PTP1B catalytic domain was expressed and purified according to a previous report. The enzymatic activities of the PTP1B catalytic domain were determined at 30 °C by monitoring the hydrolysis of pNPP. Dephosphorylation of pNPP generated the product pNP, which was monitored at an absorbance of 405 nm with an EnVision multilabel plate reader (Perkin–Elmer Life Sciences, Boston, MA). In a typical […] assay mixture containing 50 mmol/L 3-morpholinopropanesulfonic acid, pH 6.5, 2 mmol/L pNPP, and 30 nmol/L recombinant PTP1B, activities were continuously monitored and the initial rate of hydrolysis was determined by using the early linear region of the enzymatic reaction kinetic curve.

Here are results for nine molecules from PMC6423584, “New sesquiterpenoids from the South China Sea soft corals Clavularia viridis and Lemnalia flava” (Beilstein Journal of Organic Chemistry, 2019).

One may read the IC50 as the midpoint of a concentration-inhibition curve. On to `CC(C)C[C@H](NC(=O)[C@H](Cc1ccccc1)NC(=O)c1cnccn1)B(O)O` [bortezomib, reference compound], for which, in experiment [1], the IC50 was determined as 14 µM.
`Cc1cc(Br)c(C2(C)CCC(=CBr)C2C)cc1O` (stereo not shown) [compound 1, isobromolaurenisol]: the figures for the IC50 in experiment [1] and in experiment [2] were 19.9 µM and 18.8 µM, respectively.
For `C=C1CCC(C)(c2cc(O)c(C)cc2Br)C1C` (stereo not shown) [compound 2, clalaurenol A], the figures for the IC50 in experiment [1] and in experiment [2] were 6.8 µM and 21.8 µM, respectively.
On to `Cc1ccc(C2(C)CCC(=CBr)C2C)c(O)c1` (stereo not drawn) [compound 3, ent-laurenisol], for which, in experiment [2], the concentration for half-maximal inhibition (IC50) is over 50 µM and the “IC50 (μM) PTP1B” value is “inactive”.
Take `Cc1cc(O)c(C2(C)CCC(=CBr)C2C)cc1Br` (stereo not shown) [compound 4, clalaurenol B]: the IC50 was 7.3 µM in experiment [1] and 15.6 µM in experiment [2].
In the case of `Cc1cc(Br)c([C@]2(C)CC=CC2(C)C)cc1O` [compound 5, cupalaurenol], the IC50 in experiment [2] is over 50 µM.
Regarding `C=C1CCC2C(C3C(C)CCC13O)C2(C)C` (stereo not shown) [compound 6, claaromadendrene], the IC50 in experiment [2] is over 50 µM.
On to `C=C1CC[C@H]2[C@@H]([C@H]3[C@@H](C)CC[C@@]13O)C2(C)C` [compound 7, 1-hydroxyalloaromadendrene], for which the IC50 in experiment [2] was over 50 µM.
With `C/C1=C\CC(C)(C)/C=C/C[C@@]2(C)O[C@@H]2CC1` [compound 8, humulene epoxide II], the IC50 in experiment [2] was over 50 µM.
